Measured values: PubChem BioAssay AID256 (DTP/NCI, 2004)
“And” between values parts separate entries of the source, which are not always exact repeats. Equal entries are not always repeated. Inconclusive results and toxic doses are left out. The calls were made as follows: active = survival T/C of 150% or more; inactive = T/C below 125% in these data.

System: CD2F1 mice, L1210 leukemia ip, survival T/C
Assay: NCI In Vivo Anticancer Drug Screen. Data for tumor model L1210 Leukemia (intraperitoneal) in CD2F1 (CDF1) mice
Conditions: endpoint: mean survival time, higher = longer survival
Summary of the method: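 Mice carrying a transplanted tumor received test compound or vehicle alone. The value is the measurement in the treated group divided by that in the vehicle-treated control group.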

[1] = dose: 100.0 mg/kg/injection, schedule: Q01DX001 (ip), vehicle: saline with Tween-80
[2] = dose: 200.0 mg/kg/injection, schedule: Q01DX001 (ip), vehicle: saline with Tween-80
[3] = dose: 50.0 mg/kg/injection, schedule: Q01DX009 (ip), vehicle: saline with Tween-80
[4] = dose: 100.0 mg/kg/injection, schedule: Q01DX009 (ip), vehicle: saline with Tween-80
[5] = dose: 200.0 mg/kg/injection, schedule: Q01DX009 (ip), vehicle: saline with Tween-80
[6] = dose: 12.5 mg/kg/injection, schedule: Q04DX003 (ip), vehicle: saline with Tween-80
[7] = dose: 25.0 mg/kg/injection, schedule: Q04DX003 (ip), vehicle: saline with Tween-80
[8] = dose: 50.0 mg/kg/injection, schedule: Q04DX003 (ip), vehicle: saline with Tween-80
[9] = dose: 100.0 mg/kg/injection, schedule: Q04DX003 (ip), vehicle: saline with Tween-80
[10] = dose: 400.0 mg/kg/injection, schedule: Q01DX001 (ip), vehicle: saline with Tween-80
[11] = dose: 100.0 mg/kg/injection, schedule: Q01DX009 (ip), vehicle: other
[12] = dose: 200.0 mg/kg/injection, schedule: Q01DX009 (ip), vehicle: other
[13] = dose: 200.0 mg/kg/injection, schedule: Q04DX003 (ip), vehicle: saline with Tween-80
[14] = dose: 12.5 mg/kg/injection, schedule: Q01DX009 (ip), vehicle: saline with Tween-80
[15] = dose: 25.0 mg/kg/injection, schedule: Q01DX009 (ip), vehicle: saline with Tween-80
[16] = dose: 400.0 mg/kg/injection, schedule: Q01DX009 (ip), vehicle: saline with Tween-80
[17] = dose: 400.0 mg/kg/injection, schedule: Q04DX003 (ip), vehicle: saline with Tween-80

Measured: T/C

NC(=O)Cc1ccccc1[N+](=O)[O-]
inactive: dose: 50.0 mg/kg/injection, schedule: Q01DX001 (ip), vehicle: saline with Tween-80 95 % of control | [1] 104 % of control | [2] 106 % of control

CC(=O)OCC(OC(C)=O)C(OC(C)=O)C(OC(C)=O)C(OC(C)=O)C(=O)C=O (stereo not given)
inactive: [3] 101 % of control | [4] 101 % of control | [5] 109 % of control

CCOCc1cc([N+](=O)[O-])cc([N+](=O)[O-])c1O
inactive: [6] 98 % of control | [7] 98 % of control | [8] 100 % of control

COC12C(COC(C)=O)C3=C(C(=O)C(C)=C(N4CCCCC4)C3=O)N1CC1NC12 (stereo not given)
inactive: dose: 0.75 mg/kg/injection, schedule: Q01DX001 (ip), vehicle: distilled water + Tween-80 97 % of control | dose: 1.5 mg/kg/injection, schedule: Q01DX001 (ip), vehicle: distilled water + Tween-80 103 % of control | dose: 3.0 mg/kg/injection, schedule: Q01DX001 (ip), vehicle: distilled water + Tween-80 105 % of control and 112 % of control | dose: 6.0 mg/kg/injection, schedule: Q01DX001 (ip), vehicle: distilled water + Tween-80 122 % of control and 105 % of control | dose: 12.0 mg/kg/injection, schedule: Q01DX001 (ip), vehicle: distilled water + Tween-80 112 % of control

O=c1[nH]cc(Cc2ccccc2)c(=S)[nH]1
inactive: dose: 75.0 mg/kg/injection, schedule: Q01DX001 (ip), vehicle: saline with Tween-80 107 % of control | dose: 150.0 mg/kg/injection, schedule: Q01DX001 (ip), vehicle: saline with Tween-80 102 % of control | dose: 300.0 mg/kg/injection, schedule: Q01DX001 (ip), vehicle: saline with Tween-80 91 % of control

O=C(O)/C=C/C(=O)O
inactive: [1] 93 % of control and 88 % of control | [9] 100 % of control | [2] 94 % of control | [10] 91 % of control

CC(=O)NCC(C)C
inactive: dose: 100.0 mg/kg/injection, schedule: Q01DX001 (ip), vehicle: saline 98 % of control | dose: 200.0 mg/kg/injection, schedule: Q01DX001 (ip), vehicle: saline 97 % of control | dose: 400.0 mg/kg/injection, schedule: Q01DX001 (ip), vehicle: saline 104 % of control

COc1ccc2nc3c4ccccc4scc-3c2c1
inactive: dose: 25.0 mg/kg/injection, schedule: Q01DX009 (ip), vehicle: Klucel (hydroxypropylcellulose) (HPC) 109 % of control | dose: 50.0 mg/kg/injection, schedule: Q01DX009 (ip), vehicle: Klucel (hydroxypropylcellulose) (HPC) 97 % of control | dose: 100.0 mg/kg/injection, schedule: Q01DX009 (ip), vehicle: Klucel (hydroxypropylcellulose) (HPC) 110 % of control

COc1ccc(/C=C/c2ccc3ccccc3[n+]2C)c(OC)c1OC
inactive: dose: 5.0 mg/kg/injection, schedule: Q01DX009 (ip), vehicle: saline 98 % of control | dose: 10.0 mg/kg/injection, schedule: Q01DX009 (ip), vehicle: saline 86 % of control

Nc1ccc(C(O)(C(F)(F)F)C(F)(F)F)c(C(=O)O)c1
inactive: [11] 106 % of control | [12] 106 % of control | dose: 400.0 mg/kg/injection, schedule: Q01DX009 (ip), vehicle: other 102 % of control

Cc1ccc(S(=O)(=O)SCc2ccccc2)cc1
inactive: [11] 107 % of control | [12] 96 % of control

CC(=O)Oc1ccc(N2C(=O)C=CC2=O)cc1
inactive: dose: 12.5 mg/kg/injection, schedule: Q04DX003 (ip), vehicle: Klucel (hydroxypropylcellulose) (HPC) 96 % of control

CCOC(=O)c1c(C)nc(C)c(C(=O)OCC)c1-c1cccc([N+](=O)[O-])c1
inactive: [8] 97 % of control | [9] 105 % of control | [13] 103 % of control

Nc1nc[nH]c(=O)c1N
inactive: [1] 107 % of control | [2] 107 % of control | [10] 102 % of control

OCCN=Cc1c[nH]c2ccccc12
inactive: [1] 95 % of control | [2] 106 % of control | [10] 103 % of control

O=C1NC(=O)/C(=C/C=C/c2ccccc2)S1
inactive: [14] 94 % of control and 101 % of control | [15] 95 % of control and 109 % of control | [3] 97 % of control and 101 % of control | [4] 98 % of control and 101 % of control | [5] 95 % of control and 103 % of control | [16] 104 % of control

C1=C(Nc2ccccc2)C(=Nc2ccccc2)C=C(Nc2ccccc2)C1=Nc1ccccc1
inactive: [7] 96 % of control | [8] 96 % of control | [9] 98 % of control

CC(=Nc1ccccc1)c1cccs1
inactive: [9] 95 % of control | [13] 101 % of control | [17] 87 % of control

C#CC(CC)OC(=O)c1cc([N+](=O)[O-])cc([N+](=O)[O-])c1 (stereo not given)
inactive: [1] 87 % of control | dose: 100.0 mg/kg/injection, schedule: Q04DX002 (ip), vehicle: saline with Tween-80 93 % of control | [2] 94 % of control | dose: 200.0 mg/kg/injection, schedule: Q04DX002 (ip), vehicle: saline with Tween-80 93 % of control | [10] 90 % of control | dose: 400.0 mg/kg/injection, schedule: Q04DX002 (ip), vehicle: saline with Tween-80 93 % of control

Cc1cc(C)c(C(=O)C2Oc3ccccc3C2c2ccccc2)c(C)c1 (stereo not given)
inactive: [4] 95 % of control | [9] 100 % of control | [5] 97 % of control | [13] 102 % of control | [16] 91 % of control | [17] 100 % of control

CN(C)N=Nc1ccc(S(N)(=O)=O)cc1C(N)=O
inactive: dose: 18.8 mg/kg/injection, schedule: Q01DX009 (ip), vehicle: Klucel (hydroxypropylcellulose) (HPC) 96 % of control and 106 % of control | dose: 37.5 mg/kg/injection, schedule: Q01DX009 (ip), vehicle: Klucel (hydroxypropylcellulose) (HPC) 98 % of control and 110 % of control | dose: 75.0 mg/kg/injection, schedule: Q01DX009 (ip), vehicle: Klucel (hydroxypropylcellulose) (HPC) 120 % of control | dose: 300.0 mg/kg/injection, schedule: Q01DX009 (ip), vehicle: Klucel (hydroxypropylcellulose) (HPC) 117 % of control and 111 % of control

COC(=O)Nc1ccc(C)cc1[N+](=O)[O-]
inactive: dose: 100.0 mg/kg/injection, schedule: Q04DX003 (ip), vehicle: other 106 % of control | dose: 200.0 mg/kg/injection, schedule: Q04DX003 (ip), vehicle: other 106 % of control | dose: 400.0 mg/kg/injection, schedule: Q04DX003 (ip), vehicle: other 109 % of control

C/C(=N/N)c1ccc(Br)cc1
inactive: dose: 6.25 mg/kg/injection, schedule: Q01DX009 (ip), vehicle: saline with Tween-80 106 % of control | dose: 6.25 mg/kg/injection, schedule: Q04DX003 (ip), vehicle: saline with Tween-80 101 % of control | [14] 116 % of control | [6] 98 % of control | [15] 110 % of control | [7] 95 % of control

O=C(Nc1ccccc1F)Nc1cccc2ccccc12
inactive: [9] 98 % of control | [13] 101 % of control | [17] 96 % of control

CCOC(=O)CCCSc1nn(C2OC(COC(=O)c3ccccc3)C(OC(=O)c3ccccc3)C2OC(=O)c2ccccc2)c(=O)[nH]c1=O (stereo not given)
inactive: dose: 12.5 mg/kg/injection, schedule: Q01DX005 (ip), vehicle: distilled water + Tween-80 93 % of control | dose: 25.0 mg/kg/injection, schedule: Q01DX005 (ip), vehicle: distilled water + Tween-80 90 % of control | dose: 50.0 mg/kg/injection, schedule: Q01DX005 (ip), vehicle: distilled water + Tween-80 93 % of control | dose: 100.0 mg/kg/injection, schedule: Q01DX005 (ip), vehicle: distilled water + Tween-80 88 % of control | dose: 200.0 mg/kg/injection, schedule: Q01DX005 (ip), vehicle: distilled water + Tween-80 92 % of control

O=C(O)CSc1nc2ccccc2s1
inactive: [15] 96 % of control | [3] 95 % of control | [4] 97 % of control | [9] 93 % of control | [13] 94 % of control | [17] 96 % of control
